In patent US20050020612A1, “4-Aryliquinazolines and the use thereof as nhe-3 inhibitors” (priority 2001, published 2005):
Structures can show the parent of a compound that is named as a salt.

Compound | melting point [°C]
Cc1ccc(-c2nc(NN=C(N)N)nc3ccc(Cl)cc23)cc1 (as salt: HCl) [Example 10] | 289 to 290
NC(N)=Nc1nc(-c2cccc(N3CCNCC3)c2)c2cc(Cl)ccc2n1 (as salt: HCl) [Example 225] | 241
